Test results as given in paper PMC11274801, “A Novel PDE10A Inhibitor for Tourette Syndrome and Other Movement Disorders” (Cells, 2024).

Legend:
acute schizophrenia = conditions: press release ref 44; cited from earlier work
primates = test system: primates; parameters: method as in PMID 24490227; conditions: cited from earlier work
striatal cAMP and cGMP = experiment: cAMP and cGMP levels in the striatum; assay type: in vivo, rat; conditions: maximal dose 30 mg/kg
Experimental: The striatum was dissected, weighed, and then frozen in liquid nitrogen. For cyclic nucleotide measurements, frozen striatal tissue was homogenized in 5% trichloroacetic acid and centrifuged and the supernatant was collected. Supernatants were ether-washed and then the cAMP and cGMP levels in the aqueous phase were determined by enzyme immunoassay using kits from Cayman Chemical Co. (Ann Arbor, MI, USA)

[1] = test system: patients with stage I–II HD; parameters: method as in earlier work; conditions: cited from earlier work
D2 receptor = conditions: 2–5 mg daily ref 54; cited from earlier work

Cc1ncc(C)n2nc(-c3ccn4cc(-c5ccccc5)nc4n3)nc12 [CPL500-036]
efficacy in acute schizophrenia (acute schizophrenia): positive efficacy vs. placebo

Cn1cc(-c2ccncc2)c(-c2ccc(OCc3ccc4ccccc4n3)cc2)n1 [MP-10]
effect on motivational aspects of behavior (primates): dampen motivational aspects of behavior to a greater extent than a D2 antagonist | effect on striatal cAMP and cGMP levels (striatal cAMP and cGMP): increases | primary outcome (UHDRS-TMS) and clinical global impression of improvement ([1]; 26-week phase 2, 272 patients ref 45): no improvement in the primary outcome measure | quantitative motor assessment (Q-motor) ([1]; 26-week phase 2 ref 45): dose-dependent improvement

O=C(CCCN1CCC(O)(c2ccc(Cl)cc2)CC1)c1ccc(F)cc1 [haloperidol]
D2 occupancy (D2 receptor): 60–80%
